Results reported in ChEMBL document CHEMBL1201862, “PubChem BioAssay data set” (2004).
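These data come from cells grown in 96-well plates and exposed to compound for 48 hours at five concentrations. GI50: concentration for 50% inhibition of growth.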 Calls of active or inactive are those of the source. Rule as the data show it: active = GI50 up to about 1.1 µM and inactive = higher.

Assays:
Assay in all cases: inhibition of tumour cell growth, NCI panel, 48 h
786-0 = test system: 786-0
A498 = test system: A498
A549 = test system: A549
ACHN = test system: ACHN
CAKI-1 = test system: CAKI-1
CCRF-CEM = test system: CCRF-CEM
COLO 205 = test system: COLO 205
DLD-1 = test system: DLD-1
DMS-114 = test system: DMS-114
HCC 2998 = test system: HCC 2998
HCT-116 = test system: HCT-116
HOP-18 = test system: HOP-18
HOP-62 = test system: HOP-62
HOP-92 = test system: HOP-92
HT-29 = test system: HT-29
IGROV-1 = test system: IGROV-1
K562 = test system: K562
KM12 = test system: KM12
LOX IMVI = test system: LOX IMVI
LXFL 529 = test system: LXFL 529
M14 = test system: M14
M19-MEL = test system: M19-MEL
MOLT-4 = test system: MOLT-4
Malme-3M = test system: Malme-3M
NCI-H226 = test system: NCI-H226
NCI-H23 = test system: NCI-H23
NCI-H522 = test system: NCI-H522
OVCAR-3 = test system: OVCAR-3
OVCAR-4 = test system: OVCAR-4
OVCAR-5 = test system: OVCAR-5
OVCAR-8 = test system: OVCAR-8
RPMI-8226 = test system: RPMI-8226
SF-268 = test system: SF-268
SF-295 = test system: SF-295
SF-539 = test system: SF-539
SK-MEL-28 = test system: SK-MEL-28
SK-MEL-5 = test system: SK-MEL-5
SK-OV-3 = test system: SK-OV-3
SN12C = test system: SN12C
SNB-19 = test system: SNB-19
SNB-75 = test system: SNB-75
SR = test system: SR
SW-620 = test system: SW-620
TK-10 = test system: TK-10
U-251 = test system: U-251
UACC-257 = test system: UACC-257
UO-31 = test system: UO-31
XF498 = test system: XF498
DMS-273 = test system: DMS-273
EKVX = test system: EKVX
HCT-15 = test system: HCT-15
HL-60 = test system: HL-60
KM-20L2 = test system: KM-20L2
NCI-H460 = test system: NCI-H460
SK-MEL-2 = test system: SK-MEL-2
SNB-78 = test system: SNB-78
UACC-62 = test system: UACC-62

Measured: GI50

CCOC(=O)NC(=O)c1cn(CCN2CCN(C(=O)CCCCCCCCCCC(=O)N3CCN(CCn4cc(C(=O)NC(=O)OCC)c(=O)[nH]c4=O)CC3)CC2)c(=O)[nH]c1=O
inactive: 786-0 > 100 µM | A498 > 100 µM | A549 > 100 µM | ACHN > 100 µM | CAKI-1 > 100 µM | CCRF-CEM > 100 µM | COLO 205 > 100 µM | DLD-1 > 100 µM | DMS-114 > 100 µM | HCC 2998 > 100 µM | HCT-116 > 100 µM | HOP-18 > 100 µM | HOP-62 > 100 µM | HOP-92 > 100 µM | HT-29 > 100 µM | IGROV-1 > 100 µM | K562 > 100 µM | KM12 > 100 µM | LOX IMVI 29.3 µM | LXFL 529 > 100 µM | M14 > 100 µM | M19-MEL > 100 µM | MOLT-4 > 100 µM | Malme-3M > 100 µM | NCI-H226 > 100 µM | NCI-H23 > 100 µM | NCI-H522 86.5 µM | OVCAR-3 > 100 µM | OVCAR-4 > 100 µM | OVCAR-5 51.6 µM | OVCAR-8 > 100 µM | RPMI-8226 > 100 µM | SF-268 > 100 µM | SF-295 36.8 µM | SF-539 > 100 µM | SK-MEL-28 > 100 µM | SK-MEL-5 > 100 µM | SK-OV-3 > 100 µM | SN12C > 100 µM | SNB-19 > 100 µM | SNB-75 > 100 µM | SR > 100 µM | SW-620 > 100 µM | TK-10 > 100 µM | U-251 > 100 µM | UACC-257 > 100 µM | UO-31 > 100 µM | XF498 > 100 µM

O=C1NC2OCC(O)C(O)C2O1 (configuration not stated)
inactive: 786-0 > 100 µM | A498 > 100 µM | A549 > 100 µM | ACHN > 100 µM | CAKI-1 > 100 µM | CCRF-CEM > 100 µM | COLO 205 > 100 µM | DLD-1 > 100 µM | DMS-114 > 100 µM | DMS-273 > 100 µM | EKVX > 100 µM | HCC 2998 > 100 µM | HCT-116 > 100 µM | HL-60 > 100 µM | HOP-18 > 100 µM | HOP-62 > 100 µM | HOP-92 > 100 µM | HT-29 > 100 µM | IGROV-1 > 100 µM | K562 > 100 µM | KM-20L2 > 100 µM | KM12 > 100 µM | LOX IMVI > 100 µM | LXFL 529 > 100 µM | M14 > 100 µM | M19-MEL > 100 µM | MOLT-4 > 100 µM | Malme-3M > 100 µM | NCI-H23 > 100 µM | NCI-H460 > 100 µM | NCI-H522 > 100 µM | OVCAR-3 > 100 µM | OVCAR-4 > 100 µM | OVCAR-5 > 100 µM | OVCAR-8 > 100 µM | SF-268 > 100 µM | SF-295 > 100 µM | SF-539 > 100 µM | SK-MEL-28 > 100 µM | SK-MEL-2 > 100 µM | SK-MEL-5 > 100 µM | SK-OV-3 > 100 µM | SN12C > 100 µM | SNB-19 > 100 µM | SNB-75 > 100 µM | SNB-78 > 100 µM | SR > 100 µM | SW-620 > 100 µM | TK-10 > 100 µM | U-251 > 100 µM | UACC-257 > 100 µM | UACC-62 > 100 µM | UO-31 > 100 µM
> 100 µM: HCT-15

CN(C)/N=N/c1c[nH]nc1C(N)=O
64.1 µM: HCT-15
inactive: 786-0 > 100 µM | A498 > 100 µM | A549 > 100 µM | ACHN 76.7 µM | CAKI-1 > 100 µM | CCRF-CEM > 100 µM | COLO 205 > 100 µM | DLD-1 > 100 µM | DMS-114 > 100 µM | DMS-273 > 100 µM | EKVX > 100 µM | HCC 2998 > 100 µM | HCT-116 > 100 µM | HL-60 > 100 µM | HOP-18 > 100 µM | HOP-62 > 100 µM | HOP-92 > 100 µM | HT-29 > 100 µM | IGROV-1 > 100 µM | K562 54.8 µM | KM-20L2 > 100 µM | KM12 > 100 µM | LOX IMVI 53.1 µM | LXFL 529 > 100 µM | M14 > 100 µM | M19-MEL > 100 µM | MOLT-4 > 100 µM | Malme-3M > 100 µM | NCI-H226 > 100 µM | NCI-H23 > 100 µM | NCI-H460 > 100 µM | NCI-H522 42.9 µM | OVCAR-3 > 100 µM | OVCAR-4 > 100 µM | OVCAR-5 > 100 µM | OVCAR-8 > 100 µM | RPMI-8226 > 100 µM | SF-268 > 100 µM | SF-295 > 100 µM | SF-539 > 100 µM | SK-MEL-28 > 100 µM | SK-MEL-2 > 100 µM | SK-MEL-5 > 100 µM | SK-OV-3 > 100 µM | SN12C > 100 µM | SNB-19 > 100 µM | SNB-75 > 100 µM | SR 31.3 µM | SW-620 > 100 µM | TK-10 > 100 µM | U-251 > 100 µM | UACC-257 > 100 µM | UACC-62 16.2 µM | XF498 > 100 µM
